Molecules are shown by their SMILES.

The target of this test is T1, PAT1 (murine slc26a6) (Mus musculus, UniProt Q8CIW6).
T1 construct: host or cells: Fischer rat thyroid (FRT) cells, lentiviral transduction (pLVX-IRES-mCherry-slc26a6), clonal line FRT-YFP-slc26a6
T1 sequence (Q8CIW6 24-758 limits assumed): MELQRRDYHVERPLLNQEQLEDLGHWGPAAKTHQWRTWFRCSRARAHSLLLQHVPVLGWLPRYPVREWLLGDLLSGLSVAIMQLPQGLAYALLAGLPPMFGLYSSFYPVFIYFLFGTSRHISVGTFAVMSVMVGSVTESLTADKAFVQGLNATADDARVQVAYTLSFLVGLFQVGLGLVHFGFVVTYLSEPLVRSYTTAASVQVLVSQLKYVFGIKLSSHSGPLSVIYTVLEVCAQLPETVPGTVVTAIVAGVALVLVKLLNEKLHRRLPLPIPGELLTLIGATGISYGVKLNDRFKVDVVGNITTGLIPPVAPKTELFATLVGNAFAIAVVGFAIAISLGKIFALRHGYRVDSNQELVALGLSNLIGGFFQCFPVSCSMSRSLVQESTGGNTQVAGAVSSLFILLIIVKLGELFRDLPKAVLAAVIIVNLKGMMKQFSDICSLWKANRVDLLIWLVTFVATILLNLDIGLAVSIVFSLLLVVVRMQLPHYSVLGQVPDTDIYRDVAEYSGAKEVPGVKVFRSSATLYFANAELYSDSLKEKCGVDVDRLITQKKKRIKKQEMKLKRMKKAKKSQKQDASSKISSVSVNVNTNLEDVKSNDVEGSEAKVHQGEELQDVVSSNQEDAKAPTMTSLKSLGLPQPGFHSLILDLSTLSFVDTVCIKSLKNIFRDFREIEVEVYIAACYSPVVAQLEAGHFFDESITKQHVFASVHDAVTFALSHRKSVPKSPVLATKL
In words: PAT1-mediated Cl-/SCN- exchange, YFP fluorescence quenching in FRT cells. Conditions: read-out: IC50, inhibition of PAT1-mediated Cl-/SCN- exchange. It counts as cell-based. On the procedure:
As PAT1 functions as a general monovalent anion exchanger, PAT1inh-B01 inhibition was studied for different modes of anion exchange. […] To measure Cl^–/HCO3^– exchange, the time course of cytoplasmic pH was measured, using BCECF as a pH indicator, in response to a gluconate gradient to drive exchange of cytoplasmic Cl^– with extracellular HCO3^– producing cytoplasmic alkalinization (Figure 2B) as done before for DRA and pendrin ([7], [10], [11]).
Figure 2 PAT1inh-B01 inhibition of PAT1-mediated anion exchange. (A) YFP fluorescence quenching curves (left), as in Figure 1B, for inhibition of PAT1-mediated exchange of Cl^– for SCN^–, with concentration dependence of PAT1inh-B01 effect (right) (mean ± SEM, n = 3). (B) Inhibition of Cl^–/HCO3^– exchange measured in BCECF-loaded FRT cells by PAT1inh-B01 (mean ± SEM, n = 16–32). (C) Time course of PAT1 inhibition following addition of 1 μM PAT1inh-B01 to cells (mean ± SEM, n = 3). (D) Effects of second messenger signaling on PAT1-mediated Cl^–/I^– exchange. YFP fluorescence quenching curves (left) and summary data (right) following cell exposure to agonists of cAMP (20 μM forskolin + 200 μM IBMX), cGMP (100 μM 8-Br-cGMP) and Ca^+2 (100 μM ATP), or vehicle control (1% DMSO). Mean ± SEM, n = 16 experiments per group, differences not significant by 1-way ANOVA and post hoc Newman-Keuls multiple comparisons test.

Consider `Cc1c(Br)c(C(F)(F)F)nn1CC(=O)N1CCc2nc3cc(-c4ccccc4)[nH]n3c(=O)c2C1` [PAT1inh-B01], for which the IC50 is 260 nM.

The values above are taken from PMC8262356, “SLC26A6-selective inhibitor identified in a small-molecule screen blocks fluid absorption in small intestine” (JCI Insight, 2021).
